Laboratory results reported in patent publication US20080038208A1, “Pharmaceutical/cosmetic compositions comprising the lysine-d-proline-valine tripeptide” (SOCIETE L'OREAL S.A., priority 1995, published 2008).

Tests used:
interleukin-1α = assay: Production of interleukin-1α in the supernatant of plucked hairs from a patient with inflammatory alopecia (ELISA); assay type: cell-based, human; conditions: 20 hours; for % of inhibition: IL-1α in supernatant of plucked hairs; for IL-1α: supernatant of plucked hairs, control 21.8 pg/ml
Method: Dose-response activity of the Ac-KPV-NH2* tripeptide with respect to the production of interleukin-1α in the supernatant of plucked hairs emanating from a patient afflicted with inflammatory alopecia.
Plucked hairs were removed from the region of the vertex of a volunteer suffering from inflammatory alopecia. They were placed in a Williams' survival medium E (marketed by Gibco BRL) containing penicillin G (100 units/ml), streptomycin S (100 μg/ml) and amphotericin (250 ng/ml), in the presence or in the absence (control) of the Ac-KPV-NH2* tripeptide, synthesized to order by Neosystem S. A. (Strasbourg), at the doses indicated. After incubating for 20 hours, the culture supernatants were collected in a tube and then centrifuged for 5 minutes at 14,000 revolutions/minute (Eppendorff centrifuge, model 5415C). The supernatants were then collected in a clean tube and placed at 4° C.
The interleukin-1α concentration was then evaluated with respect to 100 μl of supernatant by means of a Biotrak ELISA kit marketed by Amersham, according to the manufacturer's instructions.

mRNA of IL-1α = assay: Expression of IL-1α messenger RNA in plucked hairs (RT-PCR, relative to GAPDH), 3 h 30 min; assay type: cell-based, human; conditions: treated batch, band intensity divided by GAPDH, control batch 100%
Method: (§1) Inhibition of the expression of the messenger RNAs of proinflammatory and inflammatory cytokines in response to the Ac-KPV-NH2* tripeptide.
(§2) Ten plucked hairs were removed from the region of the vertex of a volunteer suffering from inflammatory alopecia. These were placed in a Williams' survival medium E (marketed by Gibco BRL) containing penicillin G (100 units/ml), streptomycin S (100 μg/ml) and amphotericin (250 ng/ml), in the presence (treated batch) or in the absence (control) of the Ac-KPV-NH2* tripeptide, synthesized to order by Neosystem S. A., (Strasbourg).
(§3) After incubating for 3 h, 30 min, the messenger RNAs corresponding to these two batches of hair were purified from a “quick prep mRNA purification kit” marketed by Pharmacia. DNAs complementary to these mRNAs were then prepared by means of a reverse transcription kit marketed by Pharmacia, the manufacturer's instructions being followed, and then subjected to a polymerization chain reaction (PCR) stage by using primers specific for the mRNAs of glyceraldehyde-3-phosphate dehydrogenase (GAPDH), of IL-1α, of the type-1 IL-1 receptor and of the type-2 IL-1 receptor. The amounts of amplified DNA were then evaluated by electrophoresis on 1.5% agarose gel in the presence of ethidium bromide. […]

[1] = system: mRNA of the type-1 IL-1 receptor (IL-1R1); assay: Expression of type-1 IL-1 receptor messenger RNA in plucked hairs (RT-PCR, relative to GAPDH), 3 h 30 min; assay type: cell-based, human; conditions: treated batch, band intensity divided by GAPDH, control batch 100%
Method: as §1, §2, §3

mRNAs of IL-1α = assay: Expression of the mRNAs of IL-1α calculated from the IL-1α/GAPDH ratio, plucked hairs of two donors, 20 hours; assay type: cell-based, human
Method: Inhibiting effect of Ac-KPV-NH2* on the expression of the mRNAs of IL-1α, calculated from the IL-1α/GAPDH ratio.
5 hairs were plucked from two different donors and were then incubated for 20 hours at 37° C. (5% CO2) in Williams' medium E supplemented with antibiotics and with glutamine and in the presence of Ac-KPV-NH2* at the concentrations indicated. A control was carried out in which there was no peptide added.

[2] = system: catagenic papilla cells (PGE2 production); assay: Inhibition of IL-1α-induced production of PGE2 by catagenic papilla cells cultured in vitro; assay type: cell-based; conditions: 10 μM tripeptide; for PGE2: IL-1α 10 ng/ml for 20 hours, control 9.2, IL-1α alone 100.2; for % inhibition: PGE2 production induced by IL-1α 10 ng/ml
Method: Measurement of the inhibition of the production of PGE2 by catagenic papilla cells cultured in vitro.
The cells (1,000 per well), at the 24th passage, were incubated in 199 medium marketed by Gibco in the presence of 1% foetal calf serum and of antibiotics. 20 hours later, the medium was replaced by an identical medium, but containing the tripeptides to be evaluated at a final concentration of 10 μM. 5 hours later, interleukin-1α was added at a final concentration of 10 ng/ml. 20 hours later, the PGE2 levels produced by the cultured papilla cells were evaluated by means of a Biotrack kit marketed by Amersham, the manufacturer's instructions being followed. This method thus made it possible to evaluate the inhibiting effect of these tripeptides on the production of PGE2 induced by a proinflammatory cytokine: interleukin-1α.

Row | Substance | % of inhibition (interleukin-1α; 1 μM) [%] | IL-1α (interleukin-1α; 1 μM) [pg/mL] | % of inhibition (interleukin-1α; 10 μM) [%] | IL-1α (interleukin-1α; 10 μM) [pg/mL] | % of expression IL-1α (mRNA of IL-1α) [%] | % of expression IL-1R1 [1] [%] | expression of the mRNAs of IL-1α (IL-1α/GAPDH ratio), % of the control (mRNAs of IL-1α; donor A, 1 μM) [%] | expression of the mRNAs of IL-1α (IL-1α/GAPDH ratio), % of the control (mRNAs of IL-1α; donor A, 10 μM) [%] | expression of the mRNAs of IL-1α (IL-1α/GAPDH ratio), % of the control (mRNAs of IL-1α; donor B, 0.1 μM) [%] | expression of the mRNAs of IL-1α (IL-1α/GAPDH ratio), % of the control (mRNAs of IL-1α; donor B, 1 μM) [%] | expression of the mRNAs of IL-1α (IL-1α/GAPDH ratio), % of the control (mRNAs of IL-1α; donor B, 10 μM) [%] | PGE2 [2] [pg/mL] | % inhibition [2] [%]
1 | Acetyl-(D)Lys-(D)Pro-(D)Val-NH2 [Ac—KPV—NH2*] | 49 | 11.1 | 72 | 6.1 | 0 | 26 | 51 | 28 | 53 | 62 | 28.7 | 28.0 | 78
2 | Acetyl-(L)Lys-(D)Pro-(L)Val-NH2 [Ac—K—(D)P—V—NH2***] | – | – | – | – | – | – | – | – | – | – | – | 24.6 | 75
3 | Acetyl-(L)Lys-(L)Pro-(L)Val-NH2 [Ac—K—P—V—NH2**, reference compound] | – | – | – | – | – | – | – | – | – | – | – | 10.0 | 90
